# Legend:
# Rattus norvegicus [1] = conditions: oral
# Canidae = conditions: for NOAEL / LOAEL: oral, diet
# Rattus norvegicus [2] = conditions: for LD50: acute
# Rattus norvegicus [3] = conditions: repeat dose other; oral
# Rattus norvegicus [4] = conditions: for LOAEL: subchronic, Sprague-Dawley
# Rattus norvegicus [5] = conditions: chronic, oral
# Mus musculus [6] = conditions: developmental, M/F, developmental
# Rattus norvegicus [7] = conditions: developmental, oral, gavage, generation: F1
# Mus musculus [8] = conditions: reproduction developmental, oral, generation: P0
# Mus musculus [9] = conditions: developmental
# Rattus norvegicus [10] = conditions: oral, M/F
# Rattus norvegicus [11] = conditions: oral; remark: listed apart in the source
# Rattus norvegicus [12] = conditions: subchronic; duration: 42 days; oral; gavage; CD(SD)
# Mus musculus [13] = conditions: chronic; duration: 80 weeks; dermal; (TO)
# Oryctolagus sp. = conditions: acute; dermal
# [14] = subchronic, duration: 90 days, Beagle
# [15] = subchronic, liver and kidney pathology
# [16] = developmental, gavage, M/F, Crl:CD(SD), During lactation periods f1 & f2: increased pup mortality, decreased pup viability & bodyweight, decreased lactation index, increased …
# [17] = two-generation, gavage, M/F, Crl:CD(SD), During lactation periods f1 & f2: increased pup mortality, decreased pup viability & bodyweight, decreased lactation index, increased …
# [18] = developmental, increased retinal folds in weanlings, reduced viability and lactation indices, reduced pup body weight, increased dead pups at birth
# [19] = inhalation, M/F, delayed fetal ossification
# [20] = reproduction developmental, duration: 15 days, oral, diet, Sprague-Dawley
# [21] = chronic, body weight depression
# [22] = subchronic, duration: 90 days, oral, diet
# [23] = chronic, duration: 2 years, diet, M/F, Crl:CD(SD), reduced weight gain
smiles,measurement,setting,value
O=C1[O][Sb-]23[O]C(=O)C([O]2)C2[O][Sb-]4([O]C(=O)C([O]4)C1[O]3)[O]C2=O.[K+].[K+],LOAEL,"Rattus norvegicus [1]; chronic, duration: 2 years, drinking water, M/F, Long-Evans, Whole Body Effects",0.35 mg/kg-day
CC(C)(C)c1cc(Cn2c(=O)n(Cc3cc(C(C)(C)C)c(O)c(C(C)(C)C)c3)c(=O)n(Cc3cc(C(C)(C)C)c(O)c(C(C)(C)C)c3)c2=O)cc(C(C)(C)C)c1O,NOAEL,Canidae; [14],370 mg/kg-day
same,NOAEL,"Canidae; subchronic, duration: 90 days, F, Beagle",370 mg/kg-day
same,NOAEL,"Canidae; subchronic, duration: 90 days, M, Beagle",370 mg/kg-day
same,LD50,Rattus norvegicus [2]; dermal,> 2000 mg/kg
same,LD50,"Rattus norvegicus [2]; dermal, Albino rats / Tif: RAI f (SPF)",> 2000 mg/kg
same,LD50,"Rattus norvegicus [2]; oral, gavage, Tif : Raif (SPF), F3 - hybrid of RII 1/ Tif x RII 2/ Tif",> 5000 mg/kg
same,NOAEL,"Rattus norvegicus [2]; chronic, duration: 92 days, oral, diet, F, Tif: RAIf (SPF), hybrids of RII/1 x RII/2",62.4 mg/kg-day
same,NOAEL,"Rattus norvegicus [2]; chronic, duration: 92 days, oral, diet, M, Tif: RAIf (SPF), hybrids of RII/1 x RII/2",234 mg/kg-day
same,NOAEC,"Rattus norvegicus [2]; subchronic, duration: 90 days, oral, diet, Albino Rats / Charles River strain",960 mg/kg-day
"Clc1cc2c(oc3cc(Cl)c(Cl)c(Cl)c32)c(Cl)c1Cl [1,2,3,6,7,8-Hexachlorodibenzofuran]",LOAEL,Rattus norvegicus [3],0.0016 mg/kg-day
same,NOAEL,Rattus norvegicus [3],0.00016 mg/kg-day
"CC(O)CO (stereo not given) [1,2-Propylene glycol]",LOAEL,"Rattus norvegicus [4]; duration: 13 weeks, inhalation, nose only, M/F, respiratory",159 mg/m3
same,LOAEL,"Rattus norvegicus [1]; subchronic, duration: 5 weeks, drinking water, M, Wistar, Hematologic",5200 mg/kg-day
"Brc1c(Br)c(Br)c(Oc2c(Br)c(Br)c(Br)c(Br)c2Br)c(Br)c1Br [2,2',3,3',4,4',5,5',6,6'-Decabromodiphenyl ether]",NOEL,"Rattus norvegicus [5]; duration: 2 years, diet, Liver: Increased weight",1 mg/kg-day
same,LOAEL,"Rattus norvegicus [4]; duration: 8 weeks, oral, gavage, M, endocrine",0.05 mg/kg-day
same,NOAEL,"Mus musculus [6]; duration: 1 days, oral, gavage, NMRI",1.34 mg/kg-day
same,LOEL,"Rattus norvegicus [7]; M/F, Crl:CD(SD), F1: Water T maze (learning error)",1000 mg/kg-day
same,LOEL,"Rattus norvegicus [7]; M, Sprague-Dawley, F1: Morris water maze (latency, last trial) + F1: Morris water maze (latency, significant trial)",30 mg/kg-day
same,LOEL,"Mus musculus [8]; M/F, C57BL/6, P0: Operant test (fixed interval schedule, index of curvature, last block) + P0: Operant test (fixed interval schedule, index of curvature, …",6 mg/kg-day
same,LOEL,"Mus musculus [8]; M/F, C57BL/6, P0: Operant test (fixed interval schedule, overall response rate, first block) + P0: Operant test (fixed interval schedule, overall response…",20 mg/kg-day
same,LOEL,"Mus musculus [8]; M, Apoe3, P0: Morris water maze (swim distance in target quadrant)",10 mg/kg-day
same,LOEL,"Mus musculus [8]; M, Swiss Albino, P0: Morris water maze (latency, last trial) + P0: Morris water maze (latency, significant trial) + P0: Morris water maze (time spent in …",20 mg/kg-day
same,LOAEL,"Mus musculus [9]; oral, gavage, M, neurobehavioral effects",20.1 mg/kg-day
same,NOAEL,"Mus musculus [9]; oral, gavage, neurobehavioral effects",2.22 mg/kg-day
"Oc1cc(Cl)c(Cl)cc1Cl [2,4,5-Trichlorophenol]",NOAEL,"Rattus norvegicus [4]; chronic, duration: 98 days, oral, diet, M/F, Wistar, hepatic, renal",100 mg/kg-day
same,LOAEL,Rattus norvegicus [10]; [15],300 mg/kg-day
same,NOEL,Rattus norvegicus [10]; [15],100 mg/kg-day
same,NOAEL,"Rattus norvegicus [1]; chronic, duration: 98 days, diet, M/F, Wistar, Hepatic, Urinary",100 mg/kg-day
OCCCl [2-Chloroethanol],NOAEL,"Rattus norvegicus [1]; chronic, duration: 18 weeks, diet, M/F, FDRL, Whole Body Effects",45 mg/kg-day
Cc1ccccc1N [2-Methylaniline],LOAEL,"Rattus norvegicus [1]; subchronic, duration: 13 weeks, diet, M, Fischer 344",301 mg/kg-day
"OCC(O)CCl (stereo not given) [3-Chloro-1,2-propanediol]",LOEL,"Rattus norvegicus [11]; chronic, drinking water, Fischer 344, Kidney proximule tubule hyperplasia",1.1 mg/kg-day
"O=C(c1ccc(Cl)cc1)c1ccc(Cl)cc1 [4,4'-Dichlorobenzophenone]",NOAEL,"Rattus norvegicus [1]; subchronic, duration: 90 days, diet, M, Wistar",86 mg/kg-day
CCCCCCCCCCCCCCCCCC(=O)OC[C@@H](O)[C@H]1OC[C@H](O)[C@H]1O [Anhydrosorbitol stearate],NOEL,Rattus norvegicus [12],1000 mg/kg-day
same,NOAEL (% diet),"Canidae; chronic, duration: 20 months, dermal, Dog Other",5
same,LOAEL,"Canidae; chronic, duration: 21 months, Mongrel or Irish terrier",485 mg/kg-day
same,LD50,"Rattus norvegicus [2]; oral, gavage, Wistar",> 15900 mg/kg
same,NOAEL (% diet),"Rattus norvegicus [2]; reproduction developmental, duration: 2 years, oral, diet",5
same,NOAEL (% diet),Mus musculus [13],0.5
CC[C@H](C)[C@H]1O[C@]2(C=C[C@@H]1C)C[C@@H]1C[C@@H](C/C=C(\C)[C@@H](O[C@H]3C[C@H](OC)[C@@H](O[C@H]4C[C@H](OC)[C@@H](O)[C@H](C)O4)[C@H](C)O3)[C@@H](C)/C=C/C=C3\CO[C@@H]4[C@H](O)C(C)=C[C@@H](C(=O)O1)[C@]34O)O2 [Avermectin B1a],LOAEL,Rattus norvegicus [11]; [16],0.4 mg/kg-day
same,NOAEL,Rattus norvegicus [11]; [16],0.12 mg/kg-day
same,LOAEL,Rattus norvegicus [11]; [17],0.4 mg/kg-day
same,NOAEL,Rattus norvegicus [11]; [17],0.12 mg/kg-day
same,LEL,Rattus norvegicus [10]; [18],0.4 mg/kg-day
same,NOEL,Rattus norvegicus [10]; [18],0.12 mg/kg-day
[Ba+2].[Cl-].[Cl-] [Barium chloride],NOAEL,Rattus norvegicus [3],5.1 mg/kg-day
ClCCOCOCCCl [Bis(2-chloroethoxy)methane],NOAEL,"Rattus norvegicus [1]; subchronic, duration: 90 days, gavage, M/F, Sprague-Dawley, hepatic",10 mg/kg-day
CCCl [Chloroethane],NOAEL,"Mus musculus [6]; duration: 9 days, inhalation, CF1",3970 mg/m3
same,LOAEL,Mus musculus [9]; [19],13000 mg/m3
same,NOAEL,Mus musculus [9]; [19],4000 mg/m3
same,NOAEL,"Rattus norvegicus [1]; short-term, duration: 14 days, drinking water, F, Fischer 344, Whole Body Effects",361 mg/kg-day
[Cr+6] [Chromium (VI) ion],NOAEL,"Rattus norvegicus [5]; duration: 1 years, drinking water, None Observed",2.4 mg/kg-day
same,LOAEL,Rattus norvegicus [3],13.1 mg/kg-day
same,NOAEL,Rattus norvegicus [3],3.28 mg/kg-day
same,NOAEL,"Rattus norvegicus [10]; chronic, duration: 1 years, drinking water, no effects",25 mg/L
Cc1cc(C(C)(C)C)c(O)c(C)c1Cn1c(=O)n(Cc2c(C)cc(C(C)(C)C)c(O)c2C)c(=O)n(Cc2c(C)cc(C(C)(C)C)c(O)c2C)c1=O [Cyanox CY 1790],NOAEL,"Canidae; subchronic, duration: 13 weeks, Beagle",46 mg/kg-day
same,NOAEL,"Canidae; subchronic, duration: 30 days, Beagle",400 mg/kg-day
same,NOAEL,Canidae; [14],30 mg/kg-day
same,LD50,Oryctolagus sp.,> 5000 mg/kg
same,LD50,"Rattus norvegicus [2]; oral, Wistar",> 10000 mg/kg
same,LOAEL,Rattus norvegicus [2]; [20],10000 ppm
same,NOAEL,Rattus norvegicus [2]; [20],1000 ppm
same,NOAEL,"Rattus norvegicus [2]; reproduction developmental, oral, diet, Sprague-Dawley, generation: F0",1000 ppm
same,NOAEL,"Rattus norvegicus [2]; reproduction developmental, oral, diet, Sprague-Dawley, generation: F1",20000 ppm
same,NOAEL,"Rattus norvegicus [2]; subchronic, duration: 90 days, oral, diet, Sprague-Dawley",400 mg/kg-day
O=C1CCCCC1 [Cyclohexanone],LOAEL,Rattus norvegicus [10]; [21],910 mg/kg-day
same,NOAEL,Rattus norvegicus [10]; [21],462 mg/kg-day
same,NOAEL,"Rattus norvegicus [1]; chronic, duration: 25 weeks, drinking water, M, Fischer 344, Whole Body Effects",731 mg/kg-day
C[C@@H]1C[C@H]2[C@@H]3CCC4=CC(=O)C=C[C@]4(C)[C@@]3(F)[C@@H](O)C[C@]2(C)[C@@]1(O)C(=O)CO [Dexamethasone],NOEL,"Rattus norvegicus [11]; short-term, gavage, Induction of hepatic tyrosine aminotransferase activity",0.0015 mg/kg-day
C=CC[N+](C)(C)CC=C.[Cl-] [Diallyldimethylammonium chloride],LOAEL,Canidae; [14],800 mg/kg-day
same,NOAEL,Canidae; [14],200 mg/kg-day
same,LD50,"Rattus norvegicus [2]; oral, gavage, Sprague-Dawley",2520 mg/kg
same,LD50,"Rattus norvegicus [2]; oral, gavage, Wistar",3930 mg/kg
same,NOAEL,"Rattus norvegicus [2]; developmental, duration: 9 days, oral, gavage, Sprague-Dawley",6 mg/kg-day
same,NOAEL,"Rattus norvegicus [2]; reproduction developmental, duration: 9 days, oral, gavage, F, Sprague-Dawley",6 mg/kg-day
same,NOAEL,"Rattus norvegicus [2]; reproduction developmental, duration: 133 days, oral, gavage, Sprague-Dawley, generation: F0",1.25 mg/kg-day
same,NOAEL,"Rattus norvegicus [2]; reproduction developmental, duration: 133 days, oral, gavage, Sprague-Dawley, generation: F1",1.25 mg/kg-day
same,NOAEL,"Rattus norvegicus [2]; reproduction developmental, duration: 133 days, oral, gavage, Sprague-Dawley, generation: F2",1.25 mg/kg-day
same,LOAEL,Rattus norvegicus [2]; [22],500 mg/kg-day
same,NOAEL,Rattus norvegicus [2]; [22],50 mg/kg-day
CN[C@@H]1[C@H](O[C@H]2[C@H](O[C@H]3[C@H](O)[C@@H](O)[C@H](N=C(N)N)[C@@H](O)[C@@H]3N=C(N)N)O[C@@H](C)[C@]2(O)CO)O[C@@H](CO)[C@H](O)[C@H]1O [Dihydrostreptomycin],LOEL,Rattus norvegicus [11]; [23],10 mg/kg-day
same,NOEL,Rattus norvegicus [11]; [23],5 mg/kg-day
COC(=O)c1ccccc1C(=O)OC [Dimethyl phthalate],LOAEL,"Rattus norvegicus [1]; short-term, duration: 1 weeks, diet, M, Wistar",302 mg/kg-day
same,LD50,Rattus norvegicus [2]; oral,6900 mg/kg
same,NOAEL,"Rattus norvegicus [2]; developmental, duration: 10 days, oral, diet, Sprague-Dawley",> 3570 mg/kg-day
same,NOAEL,"Rattus norvegicus [2]; reproduction developmental, duration: 10 days, oral, diet, F, Sprague-Dawley",840 mg/kg-day
CC[n+]1c(-c2ccccc2)c2cc(N=NNc3cccc(C(=N)N)c3)ccc2c2ccc(N)cc21 [Isometamidium],NOAEL,"Rattus norvegicus [11]; subchronic, duration: 13 weeks, gavage, M/F, Crl:CD(SD) BR",50 mg/kg-day
O=C(NC(=O)c1c(F)cccc1F)Nc1cc(Cl)c(OC(F)(F)C(F)C(F)(F)F)cc1Cl (stereo not given) [Lufenuron],NOAEL,"Rattus norvegicus [11]; chronic, duration: 2 years, Tonic-clonic seizures, histopathological effects on lungs, liver, non-glandular stomach, intestines and urinary tract.",1.93 mg/kg-day
[Lu] [Lutetium],NOAEL,"Rattus norvegicus [1]; subchronic, duration: 90 days, diet, M/F, CRW",504 mg/kg-day
CO[C@H]1C[C@H](O[C@@H]2/C(C)=C/C[C@@H]3C[C@@H](C[C@]4(CC[C@H](C)[C@@H](C5CCCCC5)O4)O3)OC(=O)[C@@H]3C=C(C)/C(=N/O)[C@H]4OC/C(=C\C=C\[C@@H]2C)[C@]43O)O[C@@H](C)[C@@H]1O [Selamectin],NOAEL,"Rattus norvegicus [11]; chronic, duration: 1 years, Increased liver and uterus/cervix weights",5 mg/kg-day
